Among the data in ChEMBL document CHEMBL1909046, “DrugMatrix in vitro pharmacology data” are IC50 and Ki values, retold here.

The target in the first test is T1, C-C chemokine receptor type 4 (Homo sapiens, UniProt P51679). Note: in other assays of this panel Not Active means under 50% inhibition at 10 µM.
T1 sequence (P51679 whole entry): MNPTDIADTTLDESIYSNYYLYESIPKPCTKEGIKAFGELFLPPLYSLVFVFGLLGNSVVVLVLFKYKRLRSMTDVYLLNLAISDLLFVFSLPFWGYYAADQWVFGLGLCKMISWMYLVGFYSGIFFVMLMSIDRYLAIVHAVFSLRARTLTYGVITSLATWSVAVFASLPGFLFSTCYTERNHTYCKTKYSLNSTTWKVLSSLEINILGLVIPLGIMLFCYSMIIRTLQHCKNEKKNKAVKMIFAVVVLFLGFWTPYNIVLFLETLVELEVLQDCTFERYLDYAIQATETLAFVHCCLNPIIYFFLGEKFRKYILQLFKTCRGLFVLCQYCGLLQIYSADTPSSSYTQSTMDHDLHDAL
The class given is cell membranes, Membrane. Conditions: chem-1.
Usually IC50 stands for the midpoint of a concentration-inhibition curve. As for `CS(=O)(=O)c1ccc([C@@H](O)[C@@H](CO)NC(=O)C(Cl)Cl)cc1` [THIAMPHENICOL], the IC50 entry is recorded as “Not Active”.
As for `CCN(CC)CCNC(=O)c1cc(S(C)(=O)=O)ccc1OC` [TIAPRIDE], the concentration for half-maximal inhibition (IC50) entry is “Not Active”.
Same read-out and setting: with `Clc1ccccc1CN1CCc2sccc2C1` [TICLOPIDINE] the entry was “Not Active”.
For `NC1CCN(c2nc3c(cc2F)c(=O)c(C(=O)O)cn3-c2ccc(F)cc2F)C1` (stereo unspecified) [TOSUFLOXACIN], the IC50 entry was “Not Active”.
As for `O=C(Nc1ccc(Br)cc1)c1cc(Br)cc(Br)c1O` [TRIBROMSALAN], the concentration for half-maximal inhibition (IC50) entry is recorded as “Not Active”.
Take `CC(c1cc2ccccc2s1)N(O)C(N)=O` (stereo unspecified) [ZILEUTON]: the IC50 entry was “Not Active”.
One may read the Ki as the equilibrium dissociation constant of an inhibitor or competing ligand from its target. For MANGANESE CHLORIDE ANHYDROUS, the half-inhibitory concentration (IC50) result is listed as “Not Active” and the Ki entry is listed as “Not Active”.
As to SODIUM ORTHOVANAD, the IC50 result is “Not Active” and the inhibitory constant (Ki) result is “Not Active”.

For another test, the target named is T2, Alpha-1D adrenergic receptor (Homo sapiens, UniProt P25100). Note: in other assays of this panel Not Active means under 50% inhibition at 10 µM.
T2 sequence (P25100 whole entry): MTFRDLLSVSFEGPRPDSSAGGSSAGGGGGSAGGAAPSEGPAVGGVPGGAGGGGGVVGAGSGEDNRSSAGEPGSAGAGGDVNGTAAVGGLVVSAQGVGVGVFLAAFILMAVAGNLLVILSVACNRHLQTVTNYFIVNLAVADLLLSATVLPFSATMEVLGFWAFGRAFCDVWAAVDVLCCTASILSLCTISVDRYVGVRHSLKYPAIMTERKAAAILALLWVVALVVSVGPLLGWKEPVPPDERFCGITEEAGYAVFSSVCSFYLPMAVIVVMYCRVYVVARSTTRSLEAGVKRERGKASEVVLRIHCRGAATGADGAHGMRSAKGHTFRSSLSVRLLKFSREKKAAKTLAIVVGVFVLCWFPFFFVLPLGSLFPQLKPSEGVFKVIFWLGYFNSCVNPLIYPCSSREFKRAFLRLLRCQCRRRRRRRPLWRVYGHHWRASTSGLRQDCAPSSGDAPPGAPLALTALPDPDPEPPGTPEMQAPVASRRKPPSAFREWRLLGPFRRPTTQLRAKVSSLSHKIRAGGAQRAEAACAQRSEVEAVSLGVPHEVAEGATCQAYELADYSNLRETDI
The class given is cell membranes, HEK293, Membrane. The note with it: hek293.
With `CS(=O)(=O)c1ccc([C@@H](O)[C@@H](CO)NC(=O)C(Cl)Cl)cc1` [THIAMPHENICOL], the IC50 entry was “Not Active”.
As to `CCN(CC)CCNC(=O)c1cc(S(C)(=O)=O)ccc1OC` [TIAPRIDE], the concentration for half-maximal inhibition (IC50) result is “Not Active”.
Still for that read-out and setting: next, `Clc1ccccc1CN1CCc2sccc2C1` [TICLOPIDINE]: “Not Active”; `NC1CCN(c2nc3c(cc2F)c(=O)c(C(=O)O)cn3-c2ccc(F)cc2F)C1` (stereo unspecified) [TOSUFLOXACIN]: “Not Active”.
`O=C(Nc1ccc(Br)cc1)c1cc(Br)cc(Br)c1O` [TRIBROMSALAN]: the IC50 entry is reported as “Not Active”.
Consider `CC(c1cc2ccccc2s1)N(O)C(N)=O` (stereo unspecified) [ZILEUTON], for which the 50% inhibitory concentration (IC50) result was “Not Active”.
Turning to MANGANESE CHLORIDE ANHYDROUS, the IC50 result is listed as “Not Active” and the Ki result was “Not Active”.
In the case of SODIUM ORTHOVANAD, the half-maximal inhibitory concentration (IC50) entry was “Not Active” and the inhibition constant (Ki) result is listed as “Not Active”.

For a further test, the target named is C-C chemokine receptor type 2 (Homo sapiens, UniProt P41597). The class given is cell membranes, Membrane. Conditions: cho-k1. Note: in other assays of this panel Not Active means under 50% inhibition at 10 µM.
C-C chemokine receptor type 2, sequence (P41597 whole entry): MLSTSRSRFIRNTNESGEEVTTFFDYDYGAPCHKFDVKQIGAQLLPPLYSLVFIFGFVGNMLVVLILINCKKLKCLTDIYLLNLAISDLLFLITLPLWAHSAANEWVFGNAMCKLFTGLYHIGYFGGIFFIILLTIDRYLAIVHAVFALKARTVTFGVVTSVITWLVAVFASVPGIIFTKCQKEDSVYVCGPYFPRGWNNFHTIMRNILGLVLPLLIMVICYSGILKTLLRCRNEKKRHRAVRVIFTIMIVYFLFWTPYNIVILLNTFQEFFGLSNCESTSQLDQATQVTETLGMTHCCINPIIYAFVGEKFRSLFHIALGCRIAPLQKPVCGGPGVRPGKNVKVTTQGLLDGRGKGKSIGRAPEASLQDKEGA
Take `CS(=O)(=O)c1ccc([C@@H](O)[C@@H](CO)NC(=O)C(Cl)Cl)cc1` [THIAMPHENICOL]: the 50% inhibitory concentration (IC50) result is “Not Active”.
For the compound `CCN(CC)CCNC(=O)c1cc(S(C)(=O)=O)ccc1OC` [TIAPRIDE], the IC50 result is on record as “Not Active”.
`Clc1ccccc1CN1CCc2sccc2C1` [TICLOPIDINE]: the IC50 result is “Not Active”.
As to `NC1CCN(c2nc3c(cc2F)c(=O)c(C(=O)O)cn3-c2ccc(F)cc2F)C1` (stereo unspecified) [TOSUFLOXACIN], the IC50 result is on record as “Not Active”.
Regarding `O=C(Nc1ccc(Br)cc1)c1cc(Br)cc(Br)c1O` [TRIBROMSALAN], the IC50 result is reported as “Not Active”.
Take `CC(c1cc2ccccc2s1)N(O)C(N)=O` (stereo unspecified) [ZILEUTON]: the half-inhibitory concentration (IC50) entry is “Not Active”.
For MANGANESE CHLORIDE ANHYDROUS, the concentration for half-maximal inhibition (IC50) result is on record as “Not Active” and the inhibition constant Ki entry is “Not Active”.
With SODIUM ORTHOVANAD, the IC50 entry is on record as “Not Active” and the Ki entry is recorded as “Not Active”.

The next test concerns the target T3, Receptor-type tyrosine-protein phosphatase C (Homo sapiens, UniProt P08575).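 Note: inhibition of CD45 enzyme activity measured using DiFMUP as substrate; in other assays of this panel Not Active means under 50% inhibition at 10 µM.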
T3 sequence (P08575 whole entry): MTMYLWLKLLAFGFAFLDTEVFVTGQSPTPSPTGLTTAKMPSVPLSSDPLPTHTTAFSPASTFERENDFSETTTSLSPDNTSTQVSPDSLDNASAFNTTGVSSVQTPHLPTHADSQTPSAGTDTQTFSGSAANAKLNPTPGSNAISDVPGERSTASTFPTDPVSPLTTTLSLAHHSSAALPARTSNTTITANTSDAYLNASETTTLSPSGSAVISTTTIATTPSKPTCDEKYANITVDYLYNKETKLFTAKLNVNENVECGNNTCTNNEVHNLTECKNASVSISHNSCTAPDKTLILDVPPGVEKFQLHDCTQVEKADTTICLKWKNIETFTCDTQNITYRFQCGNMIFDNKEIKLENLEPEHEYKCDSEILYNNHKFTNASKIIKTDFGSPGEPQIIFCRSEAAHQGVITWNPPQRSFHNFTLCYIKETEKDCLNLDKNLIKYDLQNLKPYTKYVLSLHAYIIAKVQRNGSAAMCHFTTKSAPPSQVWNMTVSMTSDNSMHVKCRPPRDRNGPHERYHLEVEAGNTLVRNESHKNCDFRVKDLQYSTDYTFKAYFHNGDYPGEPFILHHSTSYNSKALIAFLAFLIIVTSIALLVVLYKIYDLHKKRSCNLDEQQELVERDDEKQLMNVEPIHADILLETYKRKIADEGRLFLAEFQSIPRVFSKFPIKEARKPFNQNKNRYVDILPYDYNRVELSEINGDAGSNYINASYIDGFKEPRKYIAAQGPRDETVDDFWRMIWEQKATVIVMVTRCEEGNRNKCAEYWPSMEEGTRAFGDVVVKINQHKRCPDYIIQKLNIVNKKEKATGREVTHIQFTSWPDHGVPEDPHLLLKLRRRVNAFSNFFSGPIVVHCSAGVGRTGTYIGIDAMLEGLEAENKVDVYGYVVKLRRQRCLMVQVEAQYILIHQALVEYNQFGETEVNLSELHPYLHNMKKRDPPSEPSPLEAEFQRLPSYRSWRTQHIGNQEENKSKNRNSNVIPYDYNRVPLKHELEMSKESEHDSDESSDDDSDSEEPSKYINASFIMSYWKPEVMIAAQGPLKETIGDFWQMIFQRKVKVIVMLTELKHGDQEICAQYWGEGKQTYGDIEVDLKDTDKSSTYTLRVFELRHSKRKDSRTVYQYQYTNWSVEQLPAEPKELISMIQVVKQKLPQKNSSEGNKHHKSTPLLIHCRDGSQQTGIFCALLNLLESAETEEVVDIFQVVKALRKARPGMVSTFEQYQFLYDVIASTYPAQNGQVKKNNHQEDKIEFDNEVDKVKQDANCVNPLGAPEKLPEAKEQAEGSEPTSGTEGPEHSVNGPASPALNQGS
Details: species or system Escherichia coli.
Conditions: not given
For `CS(=O)(=O)c1ccc([C@@H](O)[C@@H](CO)NC(=O)C(Cl)Cl)cc1` [THIAMPHENICOL], the IC50 entry is given as “Not Active”.
With `CCN(CC)CCNC(=O)c1cc(S(C)(=O)=O)ccc1OC` [TIAPRIDE], the half-maximal inhibitory concentration (IC50) result was “Not Active”.
As for `Clc1ccccc1CN1CCc2sccc2C1` [TICLOPIDINE], the IC50 result is recorded as “Not Active”.
With `NC1CCN(c2nc3c(cc2F)c(=O)c(C(=O)O)cn3-c2ccc(F)cc2F)C1` (stereo unspecified) [TOSUFLOXACIN], the IC50 entry is recorded as “Not Active”.
For the compound `O=C(Nc1ccc(Br)cc1)c1cc(Br)cc(Br)c1O` [TRIBROMSALAN], the IC50 result is “Not Active”.
The same measure, in the same setting: with `CC(c1cc2ccccc2s1)N(O)C(N)=O` (stereo unspecified) [ZILEUTON] the entry was “Not Active”.
For MANGANESE CHLORIDE ANHYDROUS, the 50% inhibitory concentration (IC50) entry is “Not Active” and the inhibitory constant (Ki) entry is on record as “Not Active”.
For the compound SODIUM ORTHOVANAD, the IC50 result is “Not Active” and the inhibition constant Ki result is listed as “Not Active”.

System in the next test: not listed separately
Put plainly: DRUGMATRIX: Sigma2 radioligand binding (ligand: [3H] Ifenprodil). In kind it is cell membranes, Rattus norvegicus, Wistar, Brain, Membrane. The note with it: Not Active = under 50% inhibition at 10 µM.
As to `CS(=O)(=O)c1ccc([C@@H](O)[C@@H](CO)NC(=O)C(Cl)Cl)cc1` [THIAMPHENICOL], the half-inhibitory concentration (IC50) entry was “Not Active” and the Ki result is on record as “Not Active”.
As for `CCN(CC)CCNC(=O)c1cc(S(C)(=O)=O)ccc1OC` [TIAPRIDE], the half-maximal inhibitory concentration (IC50) result is listed as “Not Active” and the Ki result is given as “Not Active”.
For the compound `NC1CCN(c2nc3c(cc2F)c(=O)c(C(=O)O)cn3-c2ccc(F)cc2F)C1` (stereo unspecified) [TOSUFLOXACIN], the 50% inhibitory concentration (IC50) entry was “Not Active” and the inhibition constant Ki result was “Not Active”.
Turning to `O=C(Nc1ccc(Br)cc1)c1cc(Br)cc(Br)c1O` [TRIBROMSALAN], the half-inhibitory concentration (IC50) entry is “Not Active” and the inhibitory constant (Ki) entry was “Not Active”.
Take `CC(c1cc2ccccc2s1)N(O)C(N)=O` (stereo unspecified) [ZILEUTON]: the IC50 entry is given as “Not Active” and the inhibition constant Ki entry is on record as “Not Active”.
With MANGANESE CHLORIDE ANHYDROUS, the concentration for half-maximal inhibition (IC50) entry is recorded as “Not Active” and the inhibition constant (Ki) entry was “Not Active”.
For the compound SODIUM ORTHOVANAD, the IC50 entry is “Not Active” and the Ki entry is recorded as “Not Active”.

Still in this test, the particulars now being: Not Active = under 50% inhibition at 10 µM; read-out: IC50.
In the case of `Clc1ccccc1CN1CCc2sccc2C1` [TICLOPIDINE], the half-inhibitory concentration (IC50) is 3.26 µM.

Still in this test, the particulars now being: Not Active = under 50% inhibition at 10 µM; read-out: Ki.
Take `Clc1ccccc1CN1CCc2sccc2C1` [TICLOPIDINE]: the Ki is 2010 nM.

The target of another test is Beta-3 adrenergic receptor (Homo sapiens, UniProt P13945). In words: DRUGMATRIX: Adrenergic beta3 radioligand binding (ligand: [125I] Cyanopindolol). The class given is cell membranes, HEK293, Membrane. The note with it: hek293; Not Active = under 50% inhibition at 10 µM.
Beta-3 adrenergic receptor, sequence (P13945 whole entry): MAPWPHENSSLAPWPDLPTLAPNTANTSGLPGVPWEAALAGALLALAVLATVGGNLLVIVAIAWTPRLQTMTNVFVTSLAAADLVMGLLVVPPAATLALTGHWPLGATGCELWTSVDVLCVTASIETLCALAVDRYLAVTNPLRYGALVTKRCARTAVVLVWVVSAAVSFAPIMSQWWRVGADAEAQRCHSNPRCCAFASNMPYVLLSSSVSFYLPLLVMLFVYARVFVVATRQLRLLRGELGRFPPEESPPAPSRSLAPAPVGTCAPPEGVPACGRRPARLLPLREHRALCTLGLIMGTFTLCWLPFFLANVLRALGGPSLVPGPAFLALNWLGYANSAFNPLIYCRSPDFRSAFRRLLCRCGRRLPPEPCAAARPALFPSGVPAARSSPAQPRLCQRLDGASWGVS
For the compound `CS(=O)(=O)c1ccc([C@@H](O)[C@@H](CO)NC(=O)C(Cl)Cl)cc1` [THIAMPHENICOL], the half-inhibitory concentration (IC50) result is “Not Active”.
As for `CCN(CC)CCNC(=O)c1cc(S(C)(=O)=O)ccc1OC` [TIAPRIDE], the half-inhibitory concentration (IC50) result is given as “Not Active”.
Consider `Clc1ccccc1CN1CCc2sccc2C1` [TICLOPIDINE], for which the half-inhibitory concentration (IC50) result is reported as “Not Active”.
As to `NC1CCN(c2nc3c(cc2F)c(=O)c(C(=O)O)cn3-c2ccc(F)cc2F)C1` (stereo unspecified) [TOSUFLOXACIN], the IC50 entry was “Not Active”.
For `O=C(Nc1ccc(Br)cc1)c1cc(Br)cc(Br)c1O` [TRIBROMSALAN], the IC50 result was “Not Active”.
On to `CC(c1cc2ccccc2s1)N(O)C(N)=O` (stereo unspecified) [ZILEUTON], for which the IC50 entry is recorded as “Not Active”.
Turning to MANGANESE CHLORIDE ANHYDROUS, the IC50 result is reported as “Not Active” and the inhibition constant Ki result is reported as “Not Active”.
With SODIUM ORTHOVANAD, the IC50 entry is “Not Active” and the Ki result is recorded as “Not Active”.
